Assay results: ChEMBL document CHEMBL4334438, “Discovery of novel glycogen synthase kinase-3α inhibitors: Structure-based virtual screening, preliminary SAR and biological evaluation for treatment of acute myeloid leukemia” (Eur J Med Chem, 2019)

Experiments:
[1] = molecular target: Activin receptor type-1 (Homo sapiens) (UniProt Q04771); experiment: Inhibition of human ALK2 (147 to end residues) assessed as residual activity at 1 uM using casein as substrate incubated for 40 mins in presence of [gamma-33ATP] by scintillation counting based radiometry assay relative to control
[2] = molecular target: Tyrosine-protein kinase BTK (Homo sapiens) (UniProt Q06187); experiment: Inhibition of recombinant full length human BTK assessed as residual activity at 1 uM using KVEKIGEGTYGVV substrate incubated for 40 mins in presence of [gamma-33ATP] by scintillation counting based radiometry assay relative to control
[3] = molecular target: Calcium/calmodulin-dependent protein kinase type II subunit beta (Homo sapiens) (UniProt Q13554); experiment: Inhibition of recombinant human CaMK2beta (1 to 315 residues) assessed as residual activity at 1 uM using […] incubated for 40 mins in presence of [gamma-33ATP] by scintillation counting based radiometry assay relative to control
[4] = test system: Mast/stem cell growth factor receptor Kit (Homo sapiens), P10721 [V560G]; experiment: Inhibition of recombinant human C-Kit V560G mutant (544 to end residues) assessed as residual activity at 1 uM poly(Glu, Tyr) 4:1 as substrate incubated 40 mins in presence of [gamma-33ATP] by scintillation counting based radiometry assay relative to control
[5] = molecular target: Tyrosine-protein kinase CSK (Homo sapiens) (UniProt P41240); experiment: Inhibition of recombinant human CSK assessed as residual activity at 1 uM poly(Glu, Tyr) 4:1 as substrate incubated 40 mins in presence of [gamma-33ATP] by scintillation counting based radiometry assay relative to control
[6] = molecular target: Insulin-like growth factor 1 receptor (Homo sapiens) (UniProt P08069); experiment: Inhibition of human activated IGF1R (959 to end residues) assessed as residual activity at 1 uM using KKKSPGEYVNIEFG as substrate after 40 mins by [gamma-33ATP] radiometric assay relative to control
[7] = molecular target: Serine/threonine-protein kinase/endoribonuclease IRE1 (Homo sapiens) (UniProt O75460); experiment: Inhibition of human IRE1 activated (465 to end residues) assessed as residual activity at 1 uM using myelin basic protein as substrate after 40 mins by [gamma-33ATP] radiometric assay relative to control
[8] = molecular target: Leukocyte tyrosine kinase receptor (Homo sapiens) (UniProt P29376); experiment: Inhibition of recombinant human LTK (450 to end residues) assessed as residual activity at 1 uM using GEEPLYWSFPAKKK as substrate after 40 mins in presence of [gamma-33ATP] by scintillation counting based radiometry assay relative to control
[9] = molecular target: Dual specificity mitogen-activated protein kinase kinase 3 (Homo sapiens) (UniProt P46734); experiment: Inhibition of recombinant human MKK3 assessed as residual activity at 1 uM by scintillation counting based radiometry assay relative to control
[10] = molecular target: MAP kinase-interacting serine/threonine-protein kinase 2 (Homo sapiens) (UniProt Q9HBH9); experiment: Inhibition of recombinant full-length human Mnk2 assessed as residual activity at 1 uM using myelin basic protein as substrate measured after 40 mins in presence of [gamma33P]ATP by scintillation counting method
[11] = test system: Serine/threonine-protein kinase Nek4 (Homo sapiens), P51957 [P225A]; experiment: Inhibition of recombinant full-length human NEK4 P225A mutant assessed as residual activity at 1 uM using myelin basic protein as substrate measured after 40 mins in presence of [gamma33P]ATP by scintillation counting method relative to control
[12] = molecular target: Serine/threonine-protein kinase Nek3 (Homo sapiens) (UniProt P51956); experiment: Inhibition of recombinant full-length human NEK3 assessed as residual activity at 1 uM using myelin basic protein as substrate measured after 40 mins in presence of [gamma33P]ATP by scintillation counting method relative to control
[13] = molecular target: [Pyruvate dehydrogenase (acetyl-transferring)] kinase isozyme 4, mitochondrial (Homo sapiens) (UniProt Q16654); experiment: Inhibition of recombinant human full length PDHK4 assessed as residual activity at 1 uM using KKKYHGHSMSDPGVSYRT as substrate measured after 40 mins in presence of [gamma33P]ATP by scintillation counting method relative to control
[14] = test system: RAC-gamma serine/threonine-protein kinase (Homo sapiens), Q9Y243 [S472D]; experiment: Inhibition of recombinant human PKBgamma S472D mutant (117 to end residues) assessed as residual activity at 1 uM using GRPRTSSFAEGKK as substrate incubated for 40 mins in presence of [gamma33P]ATP by scintillation counting based radiometry assay relative to control
[15] = molecular target: Protein kinase C beta type (Homo sapiens) (UniProt P05771); experiment: Inhibition of recombinant human PKCbeta1 (2 to end residues) assessed as residual activity at 1 uM using histone H1 as substrate measured after 40 mins in presence of [gamma33P]ATP by scintillation counting method relative to control
[16] = molecular target: cAMP-dependent protein kinase catalytic subunit PRKX (Homo sapiens) (UniProt P51817); experiment: Inhibition of recombinant human full length PrKX assessed as residual activity at 1 uM using RRRLSFAEPG as substrate measured after 40 mins in presence of [gamma33P]ATP by scintillation counting method relative to control
[17] = test system: Mitogen-activated protein kinase 14 (Homo sapiens), Q16539 [T106M]; experiment: Inhibition of recombinant human full length SAPK2a T106M mutant assessed as residual activity at 1 uM using myelin basic protein as substrate measured after 40 mins in presence of [gamma33P]ATP by scintillation counting method relative to control
[18] = molecular target: SRSF protein kinase 1 (Homo sapiens) (UniProt Q96SB4); experiment: Inhibition of human SRPK1 (2 to end residues) assessed as residual activity at 1 uM using RSRSRSRSRSRSRSR as substrate measured after 40 mins in presence of [gamma33P]ATP by scintillation counting method relative to control
[19] = molecular target: Serine/threonine-protein kinase 32C (Homo sapiens) (UniProt Q86UX6); experiment: Inhibition of recombinant full-length human STK32C at 1 uM assessed as residual activity at 1 uM using casein as substrate measured after 120 mins in presence of [gamma33P]ATP by scintillation counting method relative to control
[20] = test system: Angiopoietin-1 receptor (Homo sapiens), Q02763 [Q939H,Q940H,R849W]; experiment: Inhibition of human Tie2 Q939H/Q940H/R849W mutant (771 to end residues) assessed as residual activity at 1 uM using EFPIYDFLPAKKK as substrate measured after 40 mins in presence of [gamma33P]ATP by scintillation counting method relative to control
[21] = molecular target: Tau-tubulin kinase 1 (Homo sapiens) (UniProt Q5TCY1); experiment: Inhibition of human TTBK1 (1 to 479 residues) assessed as residual activity at 1 uM using Casein as substrate measured after 40 mins in presence of [gamma33P]ATP by scintillation counting method relative to control
[22] = test system: PI3-kinase p110-alpha/p85-alpha (Homo sapiens), P27986+P42336 [E542K]; experiment: Inhibition of recombinant full-length human PI3K p110alpha E542K mutant/p85alpha assessed as residual activity at 1 uM assessed as residual activity at 1 uM using phosphatidylinositol-4, 5-bisphosphate as substrate incubated for 40 mins in presence of [gamma33P]ATP by scintillation counting based radiometry assay relative to control; type: protein-complex assay

Sequence of Leukocyte tyrosine kinase receptor (Homo sapiens) (P29376 whole entry): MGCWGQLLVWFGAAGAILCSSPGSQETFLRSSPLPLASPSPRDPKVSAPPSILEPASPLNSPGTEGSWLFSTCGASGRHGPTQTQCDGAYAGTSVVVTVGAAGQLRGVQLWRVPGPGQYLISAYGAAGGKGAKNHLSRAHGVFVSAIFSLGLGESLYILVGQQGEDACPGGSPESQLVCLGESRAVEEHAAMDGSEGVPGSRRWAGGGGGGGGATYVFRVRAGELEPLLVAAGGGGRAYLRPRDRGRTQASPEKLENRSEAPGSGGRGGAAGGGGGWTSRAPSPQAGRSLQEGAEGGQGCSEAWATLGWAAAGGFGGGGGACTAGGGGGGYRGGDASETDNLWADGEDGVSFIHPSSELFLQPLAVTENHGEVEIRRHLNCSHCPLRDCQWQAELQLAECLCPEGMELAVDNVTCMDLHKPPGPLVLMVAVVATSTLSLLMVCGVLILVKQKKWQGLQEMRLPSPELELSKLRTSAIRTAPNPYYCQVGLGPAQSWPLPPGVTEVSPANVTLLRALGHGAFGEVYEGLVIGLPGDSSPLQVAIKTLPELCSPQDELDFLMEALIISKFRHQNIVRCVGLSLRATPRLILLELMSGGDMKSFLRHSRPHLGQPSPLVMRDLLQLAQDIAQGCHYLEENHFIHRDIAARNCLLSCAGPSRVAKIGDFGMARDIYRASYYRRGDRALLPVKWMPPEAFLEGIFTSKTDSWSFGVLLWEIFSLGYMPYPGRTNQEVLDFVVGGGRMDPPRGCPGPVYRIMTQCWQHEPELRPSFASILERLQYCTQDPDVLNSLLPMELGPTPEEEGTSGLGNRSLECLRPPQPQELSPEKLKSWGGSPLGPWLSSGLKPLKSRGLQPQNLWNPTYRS
Sequence of Angiopoietin-1 receptor (Homo sapiens), Q02763 [Q939H,Q940H,R849W] (Q02763 whole entry R849W/Q939H/Q940H, the tested form may be a part): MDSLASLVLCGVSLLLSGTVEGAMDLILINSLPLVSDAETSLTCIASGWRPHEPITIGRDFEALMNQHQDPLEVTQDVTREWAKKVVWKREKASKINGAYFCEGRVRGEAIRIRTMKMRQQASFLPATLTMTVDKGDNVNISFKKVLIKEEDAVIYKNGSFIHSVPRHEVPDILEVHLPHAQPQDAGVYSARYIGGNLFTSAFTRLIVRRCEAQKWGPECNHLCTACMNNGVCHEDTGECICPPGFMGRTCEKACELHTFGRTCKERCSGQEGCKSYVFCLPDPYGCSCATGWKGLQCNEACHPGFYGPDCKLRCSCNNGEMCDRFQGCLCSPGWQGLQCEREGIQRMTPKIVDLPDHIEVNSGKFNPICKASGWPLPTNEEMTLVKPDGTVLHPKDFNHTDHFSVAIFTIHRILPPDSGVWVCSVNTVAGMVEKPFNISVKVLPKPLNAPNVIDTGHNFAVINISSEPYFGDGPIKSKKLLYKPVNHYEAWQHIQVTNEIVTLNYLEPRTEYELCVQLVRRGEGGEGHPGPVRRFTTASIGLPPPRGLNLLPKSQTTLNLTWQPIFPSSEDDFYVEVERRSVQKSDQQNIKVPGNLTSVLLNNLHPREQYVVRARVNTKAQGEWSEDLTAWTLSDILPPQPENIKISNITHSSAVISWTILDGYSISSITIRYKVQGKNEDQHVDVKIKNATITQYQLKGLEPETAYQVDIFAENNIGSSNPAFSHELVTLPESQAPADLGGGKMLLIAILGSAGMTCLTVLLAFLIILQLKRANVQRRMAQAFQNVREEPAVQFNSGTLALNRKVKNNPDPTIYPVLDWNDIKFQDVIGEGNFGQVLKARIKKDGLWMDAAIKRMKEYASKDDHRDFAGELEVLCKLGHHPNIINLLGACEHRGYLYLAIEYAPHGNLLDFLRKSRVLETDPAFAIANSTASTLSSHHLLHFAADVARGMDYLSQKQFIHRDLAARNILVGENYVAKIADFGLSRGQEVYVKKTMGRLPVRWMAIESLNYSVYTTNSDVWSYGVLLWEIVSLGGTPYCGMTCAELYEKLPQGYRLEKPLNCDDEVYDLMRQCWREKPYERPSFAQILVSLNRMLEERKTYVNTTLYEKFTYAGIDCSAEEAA
Sequence of Serine/threonine-protein kinase/endoribonuclease IRE1 (Homo sapiens) (O75460 19-977 limits assumed): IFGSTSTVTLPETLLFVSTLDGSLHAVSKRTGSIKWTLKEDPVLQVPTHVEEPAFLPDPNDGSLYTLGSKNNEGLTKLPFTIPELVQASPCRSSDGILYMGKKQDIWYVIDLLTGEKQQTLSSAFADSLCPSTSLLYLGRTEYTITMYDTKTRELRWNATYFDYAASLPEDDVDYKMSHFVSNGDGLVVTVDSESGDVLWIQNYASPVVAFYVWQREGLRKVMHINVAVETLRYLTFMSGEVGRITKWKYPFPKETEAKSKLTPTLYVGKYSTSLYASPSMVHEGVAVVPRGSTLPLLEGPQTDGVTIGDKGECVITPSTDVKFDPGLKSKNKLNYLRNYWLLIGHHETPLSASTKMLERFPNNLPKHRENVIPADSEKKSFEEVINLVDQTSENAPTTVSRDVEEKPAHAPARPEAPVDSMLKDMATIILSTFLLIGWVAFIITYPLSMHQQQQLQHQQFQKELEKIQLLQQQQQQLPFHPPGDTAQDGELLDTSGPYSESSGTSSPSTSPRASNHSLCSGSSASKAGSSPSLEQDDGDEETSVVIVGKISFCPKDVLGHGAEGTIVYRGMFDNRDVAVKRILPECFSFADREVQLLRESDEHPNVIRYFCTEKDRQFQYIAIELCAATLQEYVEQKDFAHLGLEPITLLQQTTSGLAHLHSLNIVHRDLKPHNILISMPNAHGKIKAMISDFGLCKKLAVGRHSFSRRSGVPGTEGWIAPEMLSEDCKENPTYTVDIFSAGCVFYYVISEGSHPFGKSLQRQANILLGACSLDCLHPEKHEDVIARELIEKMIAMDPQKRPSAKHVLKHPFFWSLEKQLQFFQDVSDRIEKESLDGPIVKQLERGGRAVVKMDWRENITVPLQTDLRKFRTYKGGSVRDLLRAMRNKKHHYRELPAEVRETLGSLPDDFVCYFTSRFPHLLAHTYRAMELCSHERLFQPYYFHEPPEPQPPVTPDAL
Sequence of Mast/stem cell growth factor receptor Kit (Homo sapiens), P10721 [V560G] (P10721 whole entry V560G): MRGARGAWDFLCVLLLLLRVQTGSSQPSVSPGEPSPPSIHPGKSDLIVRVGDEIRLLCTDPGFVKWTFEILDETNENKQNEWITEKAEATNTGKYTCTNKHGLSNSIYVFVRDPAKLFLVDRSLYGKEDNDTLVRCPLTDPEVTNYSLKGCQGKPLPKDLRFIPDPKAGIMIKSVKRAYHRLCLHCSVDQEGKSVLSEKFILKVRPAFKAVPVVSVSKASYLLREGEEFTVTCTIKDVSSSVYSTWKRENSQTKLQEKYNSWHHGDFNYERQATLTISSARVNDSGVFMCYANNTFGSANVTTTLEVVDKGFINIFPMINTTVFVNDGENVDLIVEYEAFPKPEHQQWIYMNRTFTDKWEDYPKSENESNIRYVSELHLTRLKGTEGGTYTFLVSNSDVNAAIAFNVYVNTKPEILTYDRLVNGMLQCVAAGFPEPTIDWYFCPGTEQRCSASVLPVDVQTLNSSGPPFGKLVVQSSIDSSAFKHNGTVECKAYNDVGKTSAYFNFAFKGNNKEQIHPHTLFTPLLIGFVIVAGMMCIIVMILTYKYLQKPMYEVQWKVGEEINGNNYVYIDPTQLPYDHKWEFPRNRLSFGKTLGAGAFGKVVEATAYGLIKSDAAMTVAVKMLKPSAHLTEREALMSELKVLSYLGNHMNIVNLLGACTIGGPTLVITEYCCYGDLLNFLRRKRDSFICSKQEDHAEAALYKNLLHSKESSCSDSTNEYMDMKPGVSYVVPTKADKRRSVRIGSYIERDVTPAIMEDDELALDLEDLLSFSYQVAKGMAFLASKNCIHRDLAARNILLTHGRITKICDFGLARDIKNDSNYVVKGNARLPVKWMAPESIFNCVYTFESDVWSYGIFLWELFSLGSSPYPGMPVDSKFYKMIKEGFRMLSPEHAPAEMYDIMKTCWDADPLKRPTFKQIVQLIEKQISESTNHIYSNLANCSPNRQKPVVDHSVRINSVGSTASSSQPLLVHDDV
Sequence of RAC-gamma serine/threonine-protein kinase (Homo sapiens), Q9Y243 [S472D] (Q9Y243 whole entry S472D): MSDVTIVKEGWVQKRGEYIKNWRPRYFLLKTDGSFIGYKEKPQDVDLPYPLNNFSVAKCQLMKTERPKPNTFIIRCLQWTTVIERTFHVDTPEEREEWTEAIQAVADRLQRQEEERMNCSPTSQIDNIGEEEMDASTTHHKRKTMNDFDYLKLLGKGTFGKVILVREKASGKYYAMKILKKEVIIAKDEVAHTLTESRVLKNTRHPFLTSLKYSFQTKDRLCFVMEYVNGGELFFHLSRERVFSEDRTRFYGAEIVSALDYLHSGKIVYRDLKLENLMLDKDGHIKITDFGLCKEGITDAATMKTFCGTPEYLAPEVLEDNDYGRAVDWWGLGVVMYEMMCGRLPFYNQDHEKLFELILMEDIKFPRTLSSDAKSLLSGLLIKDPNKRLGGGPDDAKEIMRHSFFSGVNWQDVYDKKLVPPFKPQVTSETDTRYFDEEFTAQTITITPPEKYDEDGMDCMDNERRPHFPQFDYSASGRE
Sequence of Calcium/calmodulin-dependent protein kinase type II subunit beta (Homo sapiens) (Q13554 whole entry, the tested form may be a part): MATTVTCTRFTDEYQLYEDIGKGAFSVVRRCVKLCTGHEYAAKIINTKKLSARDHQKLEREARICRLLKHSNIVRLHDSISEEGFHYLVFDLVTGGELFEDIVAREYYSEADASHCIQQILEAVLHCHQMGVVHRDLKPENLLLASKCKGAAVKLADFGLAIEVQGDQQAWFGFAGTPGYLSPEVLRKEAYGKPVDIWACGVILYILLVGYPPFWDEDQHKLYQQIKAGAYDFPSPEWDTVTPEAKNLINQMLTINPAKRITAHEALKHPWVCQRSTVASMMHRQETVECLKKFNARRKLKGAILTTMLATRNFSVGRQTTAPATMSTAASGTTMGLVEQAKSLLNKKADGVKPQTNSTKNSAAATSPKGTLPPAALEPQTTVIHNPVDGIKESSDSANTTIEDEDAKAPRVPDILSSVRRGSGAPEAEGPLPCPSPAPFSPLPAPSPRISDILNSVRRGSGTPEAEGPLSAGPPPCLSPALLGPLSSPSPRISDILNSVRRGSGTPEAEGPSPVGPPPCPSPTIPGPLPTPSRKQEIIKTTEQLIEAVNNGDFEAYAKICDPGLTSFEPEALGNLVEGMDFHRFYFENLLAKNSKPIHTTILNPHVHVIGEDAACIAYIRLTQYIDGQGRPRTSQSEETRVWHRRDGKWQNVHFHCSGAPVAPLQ

Row | SMILES | Activity [1] [%] | Activity [2] [%] | Activity [3] [%] | Activity [4] [%] | Activity [5] [%] | Activity [6] [%] | Activity [7] [%] | Activity [8] [%] | Activity [9] [%] | Activity [10] [%] | Activity [11] [%] | Activity [12] [%] | Activity [13] [%] | Activity [14] [%] | Activity [15] [%] | Activity [16] [%] | Activity [17] [%] | Activity [18] [%] | Activity [19] [%] | Activity [20] [%] | further results
1 | N=C1NC(=O)/C(=C\c2ccc(-c3cccc([N+](=O)[O-])c3)o2)S1 | 101 | 93 | 92 | 92 | 96 | 99 | 79 | 114 | 83 | 77 | 98 | 89 | 103 | 100 | 100 | 96 | 80 | 94 | 101 | 91 | Activity [21]: 104%; Activity [22]: 99%
2 | C=CCOC(=O)c1cc(-c2ccc(/C=C3/NC(=S)NC3=O)o2)ccc1Cl | 105 | 101 | 74 | 100 | 102 | 96 | 91 | 104 | 90 | 84 | 92 | 94 | 100 | 72 | 113 | 107 | 100 | 104 | 94 | 105 | Activity [21]: 114%; Activity [22]: 91%
